Laboratory results reported in patent US20030077571A1, “Experimental model and method for evaluation of therapeutic agents against asthenopia” (priority 2001, published 2003).
Several values for one entry are separate records, joined by “and”; a condition that tells them apart may be missing. Equal entries are not always repeated. Where two headings read alike, the source gives them in different places.

Tested on: ciliary muscle
Test: Atropine inhibition of acetylcholine-induced ciliary muscle contraction (Magnus tube)
Type: cell-based, rabbit
Conditions: for inhibition at 1 µM: Oryctolagus cuniculus, atropine 10^-6 mol/L vs control; for Tension of Contraction (g), Tables 2 and 6 / Tension of Contraction (g), Tables 4 and 8 / Tension of Contraction (g), Tables 3 and 7: individual enucleated organs 1-2
Description: The ciliary muscle obtained in EXAMPLE 1 was suspended in a Magnus tube filled with Krebs-Henseleit solution bubbled through with a mixed gas of 5% carbon dioxide and 95% oxygen. Krebs-Henseleit solution was prepared as follows. A-solution, B-solution, C-solution, water and D-solution were mixed at a ratio of 1:1:1:6:1 in the following order. First A-solution, B-solution and C-solution were mixed in the above ratio followed by the addition of distilled water. After rigorous mixing, D-solution was added. The solution thus prepared was shielded from light and used after heating at 37 degrees C.
The sample in the Magnus tube was suspended at a loading weight of 0.4 g using a tension transducer (Isometric Transducer, FD Pick-up TB-611 T type, made by Nihon Kohden Corporation, Tokyo, Japan). After equilibration for 30 minutes, acetylcholine (made by SIGMA, St. Louis, Mo.) at a final concentration of 10-4 mol/L was added for the first stimulation. After tension reached a plateau value, the sample was washed with a buffer until the tension returned to the baseline. This procedure was repeated nine times.
The tension of the sample upon each stimulation was recorded by the data collection software (VISUAL DESIGNER ver. 2.3, made by INTELLIGENT INSTRUMENTATION, Tucson, Ariz.) via the tension transducer, an input box (JD-112S type, made by Nihon Kohden Corporation), an amplifier for pressure strain (AP-621G type, made by Nihon Kohden Corporation) and an A.D. conversion board (PCI-20428W, made by INTELLIGENT INSTRUMENTATION).
The net tension was calculated by subtracting the baseline tension from the tension observed after stimulation, and this was defined as the contraction rate. The first net tension, i.e., tension at the first stimulation—baseline tension, was set as a contraction rate of 100%.
In addition, the sample in the Magnus tube was treated with atropine at a final concentration of 10-6 mol/L and subjected to acetylcholine stimulation as described above, in order to confirm whether the tension of the sample was in fact due to stimulation by acetylcholine.

[1] = atropine 10^-6 mol/L, baseline tension data set
[2] = atropine 10^-6 mol/L, net tension data set
[3] = atropine 10^-6 mol/L, tension after acetylcholine stimulation data set

**Q.** `CN1[C@@H]2CC[C@H]1C[C@@H](OC(=O)C(CO)c1ccccc1)C2` (stereo partly shown) [atropine] was tested. Which inhibition at 1 µM (baseline tension data set, read-out: Inhibition Value (%), Table 6) did it give?
**A.** The inhibition at 1 µM was 84.6%.

**Q.** What about the inhibition at 1 µM (net tension data set, read-out: Inhibition Value (%), Table 8) of the same compound?
**A.** The inhibition at 1 µM was 75.6%.

**Q.** What about the inhibition at 1 µM (tension after acetylcholine stimulation data set, read-out: Inhibition Value (%), Table 7) of the same compound?
**A.** Its inhibition at 1 µM is 82%.

**Q.** And the “contraction of the ciliary muscle elicited by acetylcholine” value (atropine 10^-6 mol/L)?
**A.** The value was “inhibited”.

**Q.** What about the “Tension of Contraction, Average ± standard deviation, Table 6” value [1] of the same compound?
**A.** The value was 0.0245 ± 0.0024 g.

**Q.** What about the “Tension of Contraction (g), Tables 2 and 6” value [1] of the same compound?
**A.** Its value is 0.0228 g and 0.0262 g.

**Q.** And the “Tension of Contraction (g), Tables 2 and 6” value (atropine 10^-6 mol/L, baseline tension data set, listed as Artopine)?
**A.** The value was 0.0228 g and 0.0262 g.

**Q.** What about the “Tension of Contraction, Average ± standard deviation, Table 8” value [2] of the same compound?
**A.** The value was 0.0156 ± 0.0076 g.

**Q.** And the “Tension of Contraction (g), Tables 4 and 8” value [2]?
**A.** Its value is 0.0102 g and 0.0210 g.

**Q.** And the “Tension of Contraction (g), Tables 4 and 8” value (atropine 10^-6 mol/L, net tension data set, listed as Artopine)?
**A.** The value was 0.0102 g and 0.0210 g.

**Q.** And the “Tension of Contraction, Average ± standard deviation, Table 7” value [3]?
**A.** Its value is 0.0401 ± 0.0100 g.

**Q.** What about the “Tension of Contraction (g), Tables 3 and 7” value [3] of the same compound?
**A.** The value was 0.0330 g and 0.0472 g.

**Q.** What about the “Tension of Contraction (g), Tables 3 and 7” value (atropine 10^-6 mol/L, tension after acetylcholine stimulation data set, listed as Artopine) of the same compound?
**A.** Its value is 0.0330 g and 0.0472 g.
